Reference: US20140100241A1 (priority 2007, published 2014)
Where two headings read alike, the source gives them in different places.

Legend:
[1] = system: patients with opiate dependence; experiment: Clinical detoxification of opiate-dependent patients with decreasing buprenorphine troche doses (microdose protocol)
[2] = cited from earlier work

## O=C1CC[C@@]2(O)[C@H]3Cc4ccc(O)c5c4[C@@]2(CCN3CC2CC2)[C@H]1O5 [Naltrexone]
[1]; Naltrexone administered at 12.5 mg
  return of withdrawal symptoms after the end of buprenorphine treatment: up to five days

## COC12CCC3(CC1C(C)(O)C(C)(C)C)C1Cc4ccc(O)c5c4C3(CCN1CC1CC1)C2O5 [Buprenorphine, (2S)-2-[(−)-(5R,6R,7R,14S)-9α-cyclopropylmethyl-4,5-epoxy-6,14-ethanomorphinan-7-yl]-3-hydroxy-6-methoxy-3,3-dimethylbutan-2-ol]
[2]; in vivo
  mean half-life: 35 to 37 h
[2]; mean
  elimination half-life (mean): 37 h
[2]; oral administration
  first-pass metabolism: very high
[2]; range
  elimination half-life: 20 to 73 h
[2]; taken sublingually
  mean half-life: 35 to 37 h
[1]; 2.0 mg dose reduction, experienced or chronic user of narcotic type medications
  withdrawal symptoms after dose reduction: significant withdrawal symptoms
[1]; cut-off of 2.0 mg
  time to return of withdrawal symptoms: ≤ 24 h
[1]; fractional dose of 1.5 mg after a final 3.0 mg dose
  treatment outcome: unsuccessful
[1]; increased number of sub 0.1 mg doses, treatment three or more months
  patients transitioned safely and in a symptomless manner from buprenorphine to the blocker Naltrexone: ~100%
[1]; microdose methods over an extended period, months rather than days or weeks
  completion rate (completion means a narcotic free state): approximately 96%
[1]; previous treatment regimens, doses 8.0 to 3.0 mg
  duration of withdrawal symptoms: three to five days
[1]; serial doses of 0.25 mg
  withdrawal symptoms reported by patients: perceptible and, in some cases, intolerable withdrawal symptoms
[1]; when taken to completion of the dose reduction schedule
  success rate: greater than 90%

## CN1C(=O)CN=C(c2ccccc2)c2cc(Cl)ccc21 [Diazepam]
[1]; outpatients
  observed effect in the early phase of withdrawal: too dis-inhibiting
